According to PubChem BioAssay (NCI):
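1) Cells in 96-well plates. 2) Compound, 48 h, 5 concentrations. 3) Linear interpolation between surrounding doses. 4) Unreached endpoint = highest concentration. GI50 marks 50% less growth. At the TGI there is no net growth.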

Legend:
Assay in all cases: inhibition of tumour cell growth, NCI panel, 48 h
HCT-15 colon = tested on: HCT-15 colon
NCI-H23 lung = tested on: NCI-H23 lung
NCI/ADR-RES ovarian = tested on: NCI/ADR-RES ovarian
OVCAR-4 ovarian = tested on: OVCAR-4 ovarian
A549 NSCLC = tested on: A549 NSCLC
NCI-H460 lung = tested on: NCI-H460 lung
UO-31 renal = tested on: UO-31 renal
HL-60(TB) leukemia = tested on: HL-60(TB) leukemia
SK-OV-3 ovarian = tested on: SK-OV-3 ovarian
UACC-257 melanoma = tested on: UACC-257 melanoma
K-562 leukemia = tested on: K-562 leukemia
786-0 renal = tested on: 786-0 renal
M14 melanoma = tested on: M14 melanoma
HT29 colon = tested on: HT29 colon
HCC-2998 colon = tested on: HCC-2998 colon
NCI-H226 lung = tested on: NCI-H226 lung
PC-3 prostate = tested on: PC-3 prostate
SF-268 CNS = tested on: SF-268 CNS
SF-539 CNS = tested on: SF-539 CNS
MDA-MB-231 breast = tested on: MDA-MB-231 breast
LOX IMVI melanoma = tested on: LOX IMVI melanoma
SK-MEL-2 melanoma = tested on: SK-MEL-2 melanoma
KM12 colon = tested on: KM12 colon
HOP-62 NSCLC = tested on: HOP-62 NSCLC
SW-620 colon = tested on: SW-620 colon
SK-MEL-28 melanoma = tested on: SK-MEL-28 melanoma
T-47D breast = tested on: T-47D breast
UACC-62 melanoma = tested on: UACC-62 melanoma
IGROV1 ovarian = tested on: IGROV1 ovarian

In the case of `Clc1cccc(CNc2c3ccccc3nc3ccccc23)c1`, the TGI (HCT-15 colon) is reported as 4.6 µM, the GI50 (NCI-H23 lung) is reported as 1.73 µM and the TGI (NCI-H23 lung) is reported as 4.93 µM. It also gave a GI50 (NCI/ADR-RES ovarian) of 1.8 µM, a TGI (NCI/ADR-RES ovarian) of 4.97 µM and a GI50 (OVCAR-4 ovarian) of 2.15 µM. The TGI (OVCAR-4 ovarian) was 7.95 µM, the GI50 (A549 NSCLC) was 2.07 µM and the TGI (A549 NSCLC) was 6.01 µM. The GI50 (NCI-H460 lung) was 1.95 µM, the TGI (NCI-H460 lung) was 4.2 µM and the GI50 (UO-31 renal) was 1.14 µM. It also gave a TGI (UO-31 renal) of 3.13 µM, a GI50 (HL-60(TB) leukemia) of 1.9 µM and a TGI (HL-60(TB) leukemia) of 4.35 µM. For the same compound, the GI50 (SK-OV-3 ovarian) was 3.12 µM, the TGI (SK-OV-3 ovarian) was 13.2 µM and the GI50 (UACC-257 melanoma) was 1.92 µM. For the same compound, the TGI (UACC-257 melanoma) was 4.25 µM, the GI50 (K-562 leukemia) was 2.39 µM and the TGI (K-562 leukemia) was 11.2 µM. It also gave a GI50 (786-0 renal) of 1.66 µM, a TGI (786-0 renal) of 3.2 µM and a GI50 (M14 melanoma) of 1.53 µM. For the same compound, the TGI (M14 melanoma) was 3.02 µM, the GI50 (HT29 colon) was 1.98 µM and the TGI (HT29 colon) was 10.2 µM. It also gave a GI50 (HCC-2998 colon) of 1.65 µM, a TGI (HCC-2998 colon) of 3.19 µM and a GI50 (NCI-H226 lung) of 2.22 µM. The TGI (NCI-H226 lung) was 6.24 µM, the GI50 (PC-3 prostate) was 1.64 µM and the TGI (PC-3 prostate) was 4.65 µM. The GI50 (SF-268 CNS) was 2.54 µM, the TGI (SF-268 CNS) was 7.88 µM and the GI50 (SF-539 CNS) was 1.78 µM. The TGI (SF-539 CNS) was 3.32 µM, the GI50 (MDA-MB-231 breast) was 1.91 µM and the TGI (MDA-MB-231 breast) was 4.75 µM. The GI50 (LOX IMVI melanoma) was 1.53 µM, the TGI (LOX IMVI melanoma) was 3.08 µM and the GI50 (SK-MEL-2 melanoma) was 2 µM. It also gave a TGI (SK-MEL-2 melanoma) of 4.22 µM, a GI50 (KM12 colon) of 2.49 µM and a TGI (KM12 colon) of 7.7 µM. It also gave a GI50 (HOP-62 NSCLC) of 2.77 µM, a TGI (HOP-62 NSCLC) of 12.4 µM and a GI50 (SW-620 colon) of 1.47 µM. It also gave a TGI (SW-620 colon) of 3.91 µM, a GI50 (SK-MEL-28 melanoma) of 1.7 µM and a TGI (SK-MEL-28 melanoma) of 3.25 µM. For the same compound, the GI50 (T-47D breast) was 2 µM, the TGI (T-47D breast) was 5.06 µM and the GI50 (UACC-62 melanoma) was 1.87 µM. The TGI (UACC-62 melanoma) was 3.98 µM, the GI50 (IGROV1 ovarian) was 1.91 µM and the TGI (IGROV1 ovarian) was 5.46 µM.
